# Results reported in US8753841B2, “Enzyme that catalyzes a peptide-forming reaction from a carboxy component and an amine component, microbe producing the same, and a method of producing a dipeptide using the enzyme or microbe” (Ajinomoto Co., Inc., priority 2002, dated 2014).
# *: point of attachment. Boc = CC(C)(C)OC(=O)*
# Tests used:
# [1] = test system: peptide-forming enzyme from Empedobacter brevis strain FERM BP-8113; test: Enzyme inhibitors: effect on L-alanyl-L-glutamine production by the Mono S fraction enzyme; assay type: biochemical; settings: for inhibition of the enzyme by serine enzyme inhibitors (in words): pH 9.0, 25° C.
# [2] = Comparison of ability to catalyze peptide formation with known enzymes; assay type: biochemical; settings: enzyme of present invention = 100.0
# Text: The peptide-forming ability of the present enzyme was compared with that of known enzymes. Carboxypeptidase Y described in EP 278787A1 and the thiol endopeptidases (ficin, papain, bromelain, and chymopapain) described in EP 359399B1 were used as the known enzymes, and they were used in the form of purified enzymes (manufactured by Sigma). The enzyme uniformly purified in Example 3 was used as a source of the present enzyme of the present invention. […] As has been described above, the present enzyme was verified to have an extremely high peptide production rate unlike any known enzyme in the prior art. Furthermore, the enzyme of the present invention is a dimer having a molecular weight of about 75,000. In contrast, the molecular weight of the carboxypeptidase Y has been reported to be about 61,000, while the molecular weight of thiol endopeptidase has been reported to be about 23,000 to 36,000. Thus, the L-alanyl-L-glutamine production rate of the enzyme of the present invention as compared to those of the carboxypeptidase Y and the thiol endopeptidase is even greater when the rate is expressed per molecular weight than when it is expressed per unit weight as indicated in the examples.
# [3] = test system: peptide-forming enzyme from Empedobacter brevis strain FERM BP-8113; test: Substrate specificity of enzyme (peptide production from carboxy and amine components); assay type: biochemical; parameters: key to Formed peptide (mM): +: those peptides for which production was confirmed but which were unable to be quantified due to the absence of a standard; a trace amount; settings: L-amino acid methyl ester hydrochloride 100 mM, pH 9.0, 25° C., 3 hours
# Text: Ester specificity was examined in the case of using L-amino acid ester for the carboxy component. […] HCl represents hydrochloride in Table 4.
# Peptide production was examined in the case of using L-alanine methyl ester for the carboxy component and using various L-amino acids for the amine component.
# Peptide production was examined in the case of using various types of L-amino acid methyl esters for the carboxy component and using L-glutamine for the amine component. […] Furthermore, Tween-80 was added to the reaction system to a final concentration of 0.1% in the case of using L-Trp-OMe and L-Tyr-OMe.
# [4] = test system: Empedobacter brevis strain FERM BP-8113 microbial cells; test: Production of peptide using microbial cells of Empedobacter brevis; assay type: cell-based; settings: 1 mL 100 g/L cell suspension + 1 mL buffer with 200 mM carboxy component, 400 mM amino acid, 10 mM EDTA, pH 9.0, 18° C., 2 hours
# Protocol: A 50 mL medium (pH 6.2) containing 5 grams (g) of glucose, 5 g of ammonium sulfate, 1 g of monopotassium phosphate, 3 g of dipotassium phosphate, 0.5 g of magnesium sulfate, 10 g of yeast extract and 10 g of peptone in 1 liter (L) was transferred to a 500 mL Sakaguchi flask and sterilized at 115° C. for 15 minutes.
# Microbial cells were collected by centrifuging (10,000 rounds per minute (rpm), 15 minutes) the culture broth obtained in Example 1, followed by suspending them to a concentration of 100 g/L in 100 mM borate buffer (pH 9.0) containing 10 mM EDTA. After respectively adding 1 mL of the suspension to 1 mL each of 100 mM borate buffer solutions (pH 9.0) containing 10 mM EDTA, 200 mM of the following carboxy components, and 400 mM of the following amino acids to make a final volume of 2 mL, the reaction was carried out at 18° C. for 2 hours.
# [5] = test system: enzyme derived from Sphingobacterium sp. strain FERM BP-8124; test: Substrate specificity of enzyme derived from Sphingobacterium sp.; assay type: biochemical; parameters: key to Produced peptide (mM): +: those peptides for which production was confirmed but which were unable to be quantified due to the absence of a standard; a trace amount; settings: carboxy component 100 mM, 0.33 units enzyme, pH 9.0, 25° C., 1.5 hours; for Produced peptide (mM): Table 15-4
# [6] = test system: peptide-forming enzyme from Empedobacter brevis strain FERM BP-8113; test: Substrate specificity of enzyme (peptide production from carboxy and amine components); assay type: biochemical; settings: pH 9.0, 25° C., 3 hours; for Formed peptide: L-amino acid amide hydrochloride 100 mM as carboxy component, L-amino acid 150 mM
# [7] = test system: peptide-forming enzyme from Empedobacter brevis strain FERM BP-8113; test: as above; assay type: biochemical; parameters: key: +: those peptides for which production was confirmed but which were unable to be quantified due to the absence of a standard; a trace amount; settings: 0.1 unit enzyme, 25° C.
# [8] = test system: peptide-forming enzyme from Empedobacter brevis strain FERM BP-8113; test: as above; assay type: biochemical; parameters: key: +: those for which production was confirmed but which were unable to be quantified due to the absence of a standard; a trace amount
# [9] = inhibitor at 10 mM, borate buffer pH 9.0, 25° C., 5 minutes, 100 = absence of enzyme inhibitor
# [10] = Table 15-3, amine component 150 mM
# [11] = carboxy component 100 mM, amine component 150 mM, reaction time 3 hr
# [12] = oligopeptide production, amount of enzyme 0.2 unit, pH 9.0, 25° C., 3 hours
# [13] = Table 15-1, amine component 150 mM
# Chain of enzyme derived from Sphingobacterium sp. strain FERM BP-8124 (as listed by the source): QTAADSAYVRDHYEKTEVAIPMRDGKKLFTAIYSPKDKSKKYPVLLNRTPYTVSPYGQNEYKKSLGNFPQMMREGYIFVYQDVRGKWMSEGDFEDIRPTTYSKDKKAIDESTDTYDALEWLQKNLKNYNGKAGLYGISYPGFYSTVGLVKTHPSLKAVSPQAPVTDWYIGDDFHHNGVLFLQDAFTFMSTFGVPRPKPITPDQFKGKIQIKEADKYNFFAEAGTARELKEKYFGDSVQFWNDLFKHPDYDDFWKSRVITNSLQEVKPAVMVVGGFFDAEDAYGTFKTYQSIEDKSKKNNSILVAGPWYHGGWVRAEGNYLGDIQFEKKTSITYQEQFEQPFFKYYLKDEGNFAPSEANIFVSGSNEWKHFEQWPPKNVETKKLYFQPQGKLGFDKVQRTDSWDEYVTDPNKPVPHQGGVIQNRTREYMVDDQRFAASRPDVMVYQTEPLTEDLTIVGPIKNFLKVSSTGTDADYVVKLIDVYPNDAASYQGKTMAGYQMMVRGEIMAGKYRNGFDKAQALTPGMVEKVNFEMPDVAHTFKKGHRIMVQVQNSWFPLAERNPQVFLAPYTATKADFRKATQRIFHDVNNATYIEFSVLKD
molecule,measurement,setting,value
"O=C(O)CN(CCN(CC(=O)O)CC(=O)O)CC(=O)O [EDTA, ethylene diamine tetraacetic acid]",Relative activity of L-Ala-L-Gln production (%),[1]; [9],96%
O=C(O)CI [Monoiodoacetate],Relative activity of L-Ala-L-Gln production (%),[1]; pH 9,101%
CCN1C(=O)C=CC1=O [N-Ethyl maleimide],Relative activity of L-Ala-L-Gln production (%),[1]; [9],110%
O=S(=O)(F)Cc1ccccc1 [Phenylmethylsulfonyl fluoride],Relative activity of L-Ala-L-Gln production (%),[1]; [9],115%
same,inhibition of the enzyme by serine enzyme inhibitors (in words),"[1]; inhibitor at 10 mM, 5 minutes",not inhibited
c1cnc2c(c1)ccc1cccnc12 [o-Phenanthroline],Relative activity of L-Ala-L-Gln production (%),[1]; [9],96%
"N=C(N)Nc1ccc(C(=O)Oc2ccc([N+](=O)[O-])cc2)cc1 [p-Nitrophenyl-p′-guanidino benzoate, p-nitrophenyl-p′-guanidinobenzoate]",Relative activity of L-Ala-L-Gln production (%),[1]; [9],0.1%
same,inhibition of the enzyme by serine enzyme inhibitors (in words),"[1]; inhibitor at 10 mM, 5 minutes",inhibited
Bromelain,Ratio of L-Ala-L-Gln production rate per enzyme unit weight,[2],0.0010
"Chymopapain: thiol endopeptidase described in EP 359399B1, purified enzyme manufactured by Sigma",Ratio of L-Ala-L-Gln production rate per enzyme unit weight,[2],0.0013
Ficin,Ratio of L-Ala-L-Gln production rate per enzyme unit weight,[2],0.0017
Gly-L-His,Formed peptide,[3]; L-amino acid 150 mM,31.6 mM
same,Formed peptide,[4],22.1 mM
same,Produced peptide,[5]; [10],36.2 mM
Gly-L-Phe,Formed peptide,[3]; L-amino acid 150 mM,44.0 mM
same,Produced peptide,[5]; [10],20.0 mM
same,Produced peptide,"[6]; oligopeptide production, amount of enzyme 0.1 unit",17.3 mM
H-2-Nal-H-Gln-OH,Produced peptide (mM),"[7]; carboxy component 40 mM, amine component 40 mM, reaction time 3 hr",tr
H-Ala-2-Nal-OH,Produced peptide (mM),"[8]; carboxy component 20 mM, amine component 20 mM, 0.1 unit enzyme, 25° C., reaction time 3 hr",+
H-CHA-Phe-OH,Produced peptide (mM),"[8]; carboxy component 40 mM, amine component 40 mM, 0.1 unit enzyme, 25° C., reaction time 3 hr",+
H-Lys(Boc)-Gln-OH,Produced peptide (mM),"[8]; carboxy component 100 mM, amine component 150 mM, 0.1 unit enzyme, 25° C., reaction time 2 hr",+
H-Ser(tBu)-Gln-OH,Produced peptide (mM),"[7]; carboxy component 100 mM, amine component 150 mM, reaction time 2 hr",tr
H-p-F-Phe-H-Gln-OH,Produced peptide (mM),[7]; [11],tr
H-t-Leu-H-Gln-OH,Produced peptide (mM),[7]; [11],tr
H—Cl—F-Phe-H-Gln-OH,Produced peptide (mM),"[7]; carboxy component 25 mM, amine component 50 mM, reaction time 3 hr",tr
H—N—Me-Ala-Phe-OH,Produced peptide (mM),[7]; [11],tr
L-Ala-Gly-Gly-L-Phe-L-Met,Produced peptide (mM),[8]; [12],+
L-Ala-Gly-L-Phe,Produced peptide (mM),"[8]; oligopeptide production, amount of enzyme 0.1 unit, pH 9.0, 25° C., 3 hours",+
L-Ala-L-Arg,Formed peptide,[4],72.1 mM
same,Produced peptide,[5]; [13],72.2 mM
L-Ala-L-His,Formed peptide,[4],52.1 mM
same,Produced peptide,[5]; [13],73.6 mM
same,Produced peptide (mM),[5]; amine component 150 mM,tr
same,Formed peptide,[6],3.9 mM
L-Ala-L-Leu,Formed peptide,[4],38.2 mM
same,Produced peptide,[5]; [13],33.0 mM
L-Ala-L-Met,Formed peptide,[4],68.3 mM
same,Produced peptide,[5]; [13],86.9 mM
same,Produced peptide (mM),[5]; amine component 150 mM,tr
same,Formed peptide,[6],3.4 mM
L-Ala-L-Phe,Formed peptide,[4],62.4 mM
same,Produced peptide,[5]; [13],69.5 mM
L-Ala-L-Phe-L-Met,Produced peptide (mM),[8]; [12],+
L-Ala-L-Ser,Formed peptide,[4],51.3 mM
same,Produced peptide,[5]; [13],43.8 mM
L-Ile-L-Met,Formed peptide,[3]; L-amino acid 150 mM,10.0 mM
same,Formed peptide,[4],8.3 mM
same,Produced peptide,[5]; [10],5.1 mM
L-Ile-L-Ser,Formed peptide,[3]; L-amino acid 150 mM,17.2 mM
same,Produced peptide,[5]; [10],17.3 mM
L-Met-L-Gln,Formed peptide,[3]; 150 mM L-glutamine,12.0 mM
same,Produced peptide,"[5]; Table 15-2, L-Gln 150 mM",32.6 mM
L-Met-L-Met,Formed peptide,[3]; L-amino acid 150 mM,25.0 mM
same,Produced peptide,[5]; [10],28.4 mM
L-Met-L-Phe,Formed peptide,[3]; L-amino acid 150 mM,34.0 mM
same,Formed peptide,[4],28.5 mM
same,Produced peptide,[5]; [10],8.9 mM
L-Met-L-Ser,Formed peptide,[3]; L-amino acid 150 mM,12.8 mM
same,Produced peptide,[5]; [10],25.3 mM
L-Phe-L-Gln,Formed peptide,[3]; 150 mM L-glutamine,0.9 mM
same,Produced peptide,"[5]; Table 15-2, L-Gln 150 mM",0.8 mM
same,Formed peptide,[6],0.2 mM
L-Pro-L-Gln,Formed peptide,[3]; 150 mM L-glutamine,2.2 mM
same,Produced peptide,"[5]; Table 15-2, L-Gln 150 mM",1.8 mM
L-Ser-L-Gln,Formed peptide,[3]; 150 mM L-glutamine,24.0 mM
same,Produced peptide,"[5]; Table 15-2, L-Gln 150 mM",12.9 mM
L-Ser-L-Met,Formed peptide,[3]; L-amino acid 150 mM,12.5 mM
same,Produced peptide,[5]; [10],7.6 mM
L-Ser-L-Phe,Formed peptide,[3]; L-amino acid 150 mM,20.3 mM
same,Produced peptide,[5]; [10],4.3 mM
L-Ser-L-Ser,Formed peptide,[3]; L-amino acid 150 mM,38.0 mM
same,Formed peptide,[4],29.0 mM
same,Produced peptide,[5]; [10],9.9 mM
L-Thr-Gly,Formed peptide,[3]; L-amino acid 150 mM,9.4 mM
same,Produced peptide,[5]; [10],0.4 mM
L-Thr-L-Ala,Formed peptide,[3]; L-amino acid 150 mM,9.4 mM
same,Produced peptide,[5]; [10],5.8 mM
L-Thr-L-Gln,Formed peptide,[3]; 150 mM L-glutamine,81.9 mM
same,Produced peptide,"[5]; Table 15-2, L-Gln 150 mM",36.1 mM
same,Formed peptide,[6],0.3 mM
L-Thr-L-Leu,Formed peptide,[3]; L-amino acid 150 mM,28.4 mM
same,Formed peptide,[4],23.0 mM
same,Produced peptide,[5]; [10],15.3 mM
L-Thr-L-Met,Formed peptide,[3]; L-amino acid 150 mM,38.6 mM
same,Produced peptide,[5]; [10],28.9 mM
L-Thr-L-Val,Formed peptide,[3]; L-amino acid 150 mM,0.7 mM
same,Produced peptide,[5]; [10],1.3 mM
L-Tyr-L-Gln,Formed peptide,[3]; 150 mM L-glutamine,3.4 mM
same,Produced peptide,"[5]; Table 15-2, L-Gln 150 mM",0.6 mM
L-Val-L-Gln,Formed peptide,[3]; 150 mM L-glutamine,15.4 mM
same,Produced peptide,"[5]; Table 15-2, L-Gln 150 mM",8.2 mM
L-Val-L-Met,Formed peptide,[3]; L-amino acid 150 mM,10.3 mM
same,Formed peptide,[4],10.5 mM
same,Produced peptide,[5]; [10],6.8 mM
L-Val-L-Phe,Formed peptide,[3]; L-amino acid 150 mM,6.1 mM
same,Produced peptide,[5]; [10],1.0 mM
L-Val-L-Ser,Formed peptide,[3]; L-amino acid 150 mM,30.8 mM
same,Produced peptide,[5]; [10],31.9 mM
α-L-Asp-L-Gln,Formed peptide (mM),[3]; 150 mM L-glutamine,tr
same,Produced peptide,"[5]; Table 15-2, L-Gln 150 mM",0.05 mM
"Papain: thiol endopeptidase described in EP 359399B1, purified enzyme manufactured by Sigma (protein, UniProt P00784 134-345, looked up) Papain: IPEYVDWRQKGAVTPVKNQGSCGSCWAFSAVVTIEGIIKIRTGNLNEYSEQELLDCDRRSYGCNGGYPWSALQLVAQYGIHYRNTYPYEGVQRYCRSREKGPYAAKTDGVRQVQPYNEGALLYSIANQPVSVVLEAAGKDFQLYRGGIFVGPCGNKVDHAVAAVGYGPNYILIKNSWGTGWGENGYIRIKRGTGNSYGVCGLYTSSFYPVKN",Ratio of L-Ala-L-Gln production rate per enzyme unit weight,[2],0.0021
